Measured values as given in patent US8697715B2, “Serine/threonine kinase inhibitors” (Array BioPharma Inc., priority 2012, dated 2014).

The compounds below were run on PMA-stimulated P90RSK(Ser380) phosphorylation in HepG2 cells (assay: Cellular P90RSK(Ser380) Phosphorylation Assay). Conditions: Homo sapiens, read-out: Biological Example 2 IC50 (nM), 1.5 hours compound incubation, PMA 100 ng/mL 30 minutes, normalized to GAPDH, single assay or mean of multiple assays.
Format: cell-based
Description: Inhibition of PMA-stimulated P90RSK(Ser380) phosphorylation was determined by the following in vitro cellular mechanistic assay, which comprises incubating cells with a compound for 1.5 hours and quantifying fluorescent pP90RSK(Ser380) signal on fixed cells and normalizing to GAPDH signal.
HepG2 cells were obtained from ATCC and grown in DMEM supplemented with 10% fetal bovine serum. Cells were plated in 96-well plates at 35,000 cells/well and allowed to attach overnight at 37° C./5% CO2. Diluted compounds were then added at a final concentration of 0.5% DMSO. After 1.5 hours compound incubation, cells were stimulated with the addition of phorbol 12-myristate 13-acetate (“PMA”) at a final concentration of 100 ng/mL; the PMA stimulation was a 30-minute incubation at 37° C./5% CO2. After the 30-minute PMA stimulation, cells were washed with phosphate buffered saline (“PBS”) and fixed in 3.7% formaldehyde in PBS at room temperature for 15-20 minutes. This was followed by another wash in PBS and then permeabilization in 100% MeOH at room temperature for 10-15 minutes. Following the permeabilization incubation, cells were washed in PBS/0.05% Tween-20, followed by a block in Odyssey blocking buffer (LI-COR Biosciences) for at least 1 hour. […] Both secondary antibodies were used at a 1:1000 dilution. Cells were then washed and analyzed for fluorescence at both wavelengths using the Odyssey Infrared Imaging System (LI-COR Biosciences). Phosphorylated P90RSK(Ser380) signal was normalized to GAPDH signal.
`CCn1cc(Nc2nccc(-c3ccn([C@H](CO)c4ccc(Cl)c(F)c4)c(=O)c3)n2)c(C)n1` [Example 173, (S)-1-(1-(4-chloro-3-fluorophenyl)-2-hydroxyethyl)-4-(2-((1-ethyl-3-methyl-1H-pyrazol-4-yl)amino)pyrimidin-4-yl)pyridin-2(1H)-one] showed an IC50 of 110 nM.
Compound `C[C@@H](CO)Nc1nccc(-c2ccn(C(CO)c3cccc(Cl)c3)c(=O)c2)n1` (stereo partly drawn) [Example 58, 1-(1-(3-chlorophenyl)-2-hydroxyethyl)-4-(2-(((S)-1-hydroxypropan-2-yl)amino)pyrimidin-4-yl)pyridin-2(1H)-one] has an IC50 of 708 nM.
`O=c1cc(-c2ccnc(NC3CCOCC3)n2)ccn1Cc1cc(F)c2cc[nH]c2c1` [Example 289, 1-((4-fluoro-1H-indol-6-yl)methyl)-4-(2-((tetrahydro-2H-pyran-4-yl)amino)pyrimidin-4-yl)pyridin-2(1H)-one] gave an IC50 of 20.4 nM.
`CC(C)(N)C(=O)OC[C@H](c1ccc(Cl)c(F)c1)n1ccc(-c2ccnc(NC3CCOCC3)n2)cc1=O` [Example 290, (S)-2-(4-chloro-3-fluorophenyl)-2-(2-oxo-4-(2-((tetrahydro-2H-pyran-4-yl)amino)pyrimidin-4-yl)pyridin-1(2H)-yl)ethyl 2-amino-2-methylpropanoate] was tested, and the IC50 was 26.5 nM.
`O=c1cc(-c2ccnc(NC3CCOCC3)n2)ccn1C(c1ccc(Cl)c(F)c1)[C@@H]1CCCN1` (stereo partly drawn) [Example 102, 1-((4-chloro-3-fluorophenyl)((S)-pyrrolidin-2-yl)methyl)-4-(2-((tetrahydro-2H-pyran-4-yl)amino)pyrimidin-4-yl)pyridin-2(1H)-one] showed an IC50 of over 5000 nM.
Compound `O=c1cc(-c2ccnc(NC3CCOCC3)n2)ccn1Cc1cc2c(F)cccc2[nH]1` [Example 266, 1-((4-fluoro-1H-indol-2-yl)methyl)-4-(2-((tetrahydro-2H-pyran-4-yl)amino)pyrimidin-4-yl)pyridin-2(1H)-one] has an IC50 of 8.6 nM.
`C[C@@H](CO)Nc1nccc(-c2ccn(C(CO)c3ccc(F)c(Cl)c3)c(=O)c2)n1` (stereo partly drawn) [Example 60, 1-(1-(3-chloro-4-fluorophenyl)-2-hydroxyethyl)-4-(2-(((S)-1-hydroxypropan-2-yl)amino)pyrimidin-4-yl)pyridin-2(1H)-one] showed an IC50 of 1610 nM.
